We go through 1 molecule from PMC5218480 (PLoS ONE, 2017).

The test has as its system MV-4-11 cells. In words: Gene expression microarray analysis (Affymetrix PrimeView) and GSEA. In kind it is cell-based, human. Further details: RFU PODN (11730768_x_at) / Fold change /veh PODN (11730768_x_at) / RFU LINC00158 (11744669_a_at) / Fold change /veh LINC00158 (11744669_a_at) / RFU DUSP10 (11751237_a_at) / Fold change /veh DUSP10 (11751237_a_at) / RFU ID3 (11757404_x_at) / Fold change /veh ID3 (11757404_x_at) / RFU PLEKHG5 (11737974_s_at) / Fold change /veh PLEKHG5 (11737974_s_at) / RFU LRRC4B (11730491_at) / Fold change /veh LRRC4B (11730491_at) / RFU GIMAP4 (11747438_a_at) / Fold change /veh GIMAP4 (11747438_a_at) / RFU KRT8 (11758183_x_at) / Fold change /veh KRT8 (11758183_x_at) / RFU CNN1 (11734310_a_at) / Fold change /veh CNN1 (11734310_a_at) / RFU VPS37D (11726825_at) / Fold change /veh VPS37D (11726825_at) / RFU C10orf10 (11716522_x_at) / Fold change /veh C10orf10 (11716522_x_at) / RFU KIR2DL2 /// KIR2DL4 /// KIR2DL5A /// KIR2DL5B /// KIR2DS1 /// KIR2DS2 /// KIR2DS3 /// KIR2DS4 /// KIR3DL3 /// KIR3DL3 /// KIR3DS1 (11738374_at) / Fold change /veh KIR2DL2 /// KIR2DL4 /// KIR2DL5A /// KIR2DL5B /// KIR2DS1 /// KIR2DS2 /// KIR2DS3 /// KIR2DS4 /// KIR3DL3 /// KIR3DL3 /// KIR3DS1 (11738374_at) / RFU C1QL1 (11718748_at) / Fold change /veh C1QL1 (11718748_at) / RFU TMPRSS4 (11747572_a_at) / Fold change /veh TMPRSS4 (11747572_a_at) / RFU HAMP (11756126_x_at) / Fold change /veh HAMP (11756126_x_at) / RFU RNFT2 (11725882_a_at) / Fold change /veh RNFT2 (11725882_a_at) / RFU NR4A2 (11747474_a_at) / Fold change /veh NR4A2 (11747474_a_at) / RFU ABCC12 (11746883_a_at) / Fold change /veh ABCC12 (11746883_a_at) / RFU TMEM136 (11760407_x_at) / Fold change /veh TMEM136 (11760407_x_at) / RFU CLDN22 /// WWC2 (11732394_at) / Fold change /veh CLDN22 /// WWC2 (11732394_at) / RFU HLA-DPB1 (11760878_x_at) / Fold change /veh HLA-DPB1 (11760878_x_at) / RFU SPINT1 (11716480_a_at) / Fold change /veh SPINT1 (11716480_a_at) / RFU GAP43 (11754022_s_at) / Fold change /veh GAP43 (11754022_s_at) / RFU A4GNT (11735810_at) / Fold change /veh A4GNT (11735810_at) / RFU PRB3 (11715151_x_at) / Fold change /veh PRB3 (11715151_x_at) / RFU TUBB4B (11761932_at) / Fold change /veh TUBB4B (11761932_at) / RFU CAPN14 (11732068_a_at) / Fold change /veh CAPN14 (11732068_a_at) / RFU TMCC2 (11721928_a_at) / Fold change /veh TMCC2 (11721928_a_at) / RFU IRGQ (11745062_a_at) / Fold change /veh IRGQ (11745062_a_at) / RFU FAM174B (11720279_a_at) / Fold change /veh FAM174B (11720279_a_at) / RFU TMPRSS4 (11748680_a_at) / Fold change /veh TMPRSS4 (11748680_a_at) / RFU FAM212B (11763350_a_at) / Fold change /veh FAM212B (11763350_a_at) / RFU PLEKHG5 (11743358_a_at) / Fold change /veh PLEKHG5 (11743358_a_at) / RFU ZSCAN30 (11745921_a_at) / Fold change /veh ZSCAN30 (11745921_a_at) / RFU CMKLR1 (11741424_a_at) / Fold change /veh CMKLR1 (11741424_a_at) / RFU LOC101060620 /// MAPK8IP1 (11723275_at) / Fold change /veh LOC101060620 /// MAPK8IP1 (11723275_at) / RFU SPTSSB (11747773_x_at) / Fold change /veh SPTSSB (11747773_x_at) / RFU PRSS12 (11739890_at) / Fold change /veh PRSS12 (11739890_at) / RFU BIN1 (11741810_x_at) / Fold change /veh BIN1 (11741810_x_at) / RFU WNT11 (11732464_a_at) / Fold change /veh WNT11 (11732464_a_at) / RFU C10orf10 (11716521_a_at) / Fold change /veh C10orf10 (11716521_a_at) / RFU C5orf56 (11738089_at) / Fold change /veh C5orf56 (11738089_at) / RFU CYB561 (11721691_x_at) / Fold change /veh CYB561 (11721691_x_at) / RFU ANKRD19P (11752326_a_at) / Fold change /veh ANKRD19P (11752326_a_at) / RFU OR2T12 /// OR2T33 /// OR2T8 (11738714_s_at) / Fold change /veh OR2T12 /// OR2T33 /// OR2T8 (11738714_s_at) / RFU VCAN (11748164_a_at) / Fold change /veh VCAN (11748164_a_at) / RFU JSRP1 (11732532_at) / Fold change /veh JSRP1 (11732532_at) / RFU KRTAP10-11 (11738290_x_at) / Fold change /veh KRTAP10-11 (11738290_x_at) / RFU MYO3A (11730013_a_at) / Fold change /veh MYO3A (11730013_a_at) / RFU EBF3 (11725865_a_at) / Fold change /veh EBF3 (11725865_a_at) / RFU CAMK2N1 (11719241_x_at) / Fold change /veh CAMK2N1 (11719241_x_at) / RFU C5orf56 (11738088_a_at) / Fold change /veh C5orf56 (11738088_a_at) / RFU OLFML3 (11715873_a_at) / Fold change /veh OLFML3 (11715873_a_at) / RFU LOC100653217 /// NTM (11731650_a_at) / Fold change /veh LOC100653217 /// NTM (11731650_a_at) / RFU MAPK11 (11762145_a_at) / Fold change /veh MAPK11 (11762145_a_at) / RFU FIZ1 (11724087_x_at) / Fold change /veh FIZ1 (11724087_x_at) / RFU OASL (11726364_x_at) / Fold change /veh OASL (11726364_x_at) / RFU SOX15 (11748057_x_at) / Fold change /veh SOX15 (11748057_x_at) / RFU CD79A (11719716_a_at) / Fold change /veh CD79A (11719716_a_at) / RFU HIST1H1D (11736915_at) / Fold change /veh HIST1H1D (11736915_at) / RFU CASKIN2 (11723855_a_at) / Fold change /veh CASKIN2 (11723855_a_at) / RFU LOC730098 (11760151_x_at) / Fold change /veh LOC730098 (11760151_x_at) / RFU OR4N2 (11742367_at) / Fold change /veh OR4N2 (11742367_at) / RFU PRRT2 (11749266_a_at) / Fold change /veh PRRT2 (11749266_a_at) / RFU SNX32 (11753110_a_at) / Fold change /veh SNX32 (11753110_a_at) / RFU CDHR5 (11726645_a_at) / Fold change /veh CDHR5 (11726645_a_at) / RFU RCAN1 (11760418_a_at) / Fold change /veh RCAN1 (11760418_a_at) / RFU FAM167A (11723789_a_at) / Fold change /veh FAM167A (11723789_a_at) / RFU FAM26E (11764081_at) / Fold change /veh FAM26E (11764081_at) / RFU ISYNA1 (11749810_s_at) / Fold change /veh ISYNA1 (11749810_s_at) / RFU ACY1 (11761880_at) / Fold change /veh ACY1 (11761880_at) / RFU 11764098_at / Fold change /veh 11764098_at / RFU SAMD14 (11745864_x_at) / Fold change /veh SAMD14 (11745864_x_at) / RFU NPB (11741838_a_at) / Fold change /veh NPB (11741838_a_at) / RFU TMPRSS6 (11731388_a_at) / Fold change /veh TMPRSS6 (11731388_a_at) / RFU KRTAP10-2 (11738614_at) / Fold change /veh KRTAP10-2 (11738614_at) / RFU ARHGAP8 /// PRR5-ARHGAP8 (11727945_x_at) / Fold change /veh ARHGAP8 /// PRR5-ARHGAP8 (11727945_x_at) / RFU KRTAP5-7 /// NADSYN1 (11734609_at) / Fold change /veh KRTAP5-7 /// NADSYN1 (11734609_at) / RFU RASL12 (11751679_a_at) / Fold change /veh RASL12 (11751679_a_at) / RFU CDKN2B (11736163_a_at) / Fold change /veh CDKN2B (11736163_a_at) / RFU PRF1 (11729649_at) / Fold change /veh PRF1 (11729649_at) / RFU, ZNF638 /// ZNF638-IT1 / Fold change vs veh, ZNF638 /// ZNF638-IT1 / RFU, PANK3 / Fold change vs veh, PANK3 / RFU, SH3YL1 / Fold change vs veh, SH3YL1 / RFU, ZEB2 / Fold change vs veh, ZEB2 / RFU, NRIP1 / Fold change vs veh, NRIP1 / RFU, PTTG1IP / Fold change vs veh, PTTG1IP / RFU, CAPN2 / Fold change vs veh, CAPN2 / RFU, MED14 / Fold change vs veh, MED14 / RFU, SNORA58 / Fold change vs veh, SNORA58 / RFU, C1orf63 / Fold change vs veh, C1orf63 / RFU, LRRFIP1 / Fold change vs veh, LRRFIP1 / RFU, NDUFAF7 / Fold change vs veh, NDUFAF7 / RFU, SLC12A2 / Fold change vs veh, SLC12A2 / RFU, IBTK / Fold change vs veh, IBTK / RFU, ESF1 / Fold change vs veh, ESF1 / Fold change vs veh, TMEM50B / RFU, TAOK1 / Fold change vs veh, TAOK1 / RFU, ACBD3 / Fold change vs veh, ACBD3 / RFU, TMA16 / Fold change vs veh, TMA16 / RFU, RWDD3 / Fold change vs veh, RWDD3 / RFU, BCAT1 / Fold change vs veh, BCAT1 / RFU, EDEM3 / Fold change vs veh, EDEM3 / RFU, TMEM33 / Fold change vs veh, TMEM33 / RFU, WDR75 / Fold change vs veh, WDR75 / RFU, AHCTF1 / Fold change vs veh, AHCTF1 / RFU, TFRC / Fold change vs veh, TFRC / RFU, ZDHHC17 / Fold change vs veh, ZDHHC17 / RFU, NOM1 / Fold change vs veh, NOM1 / RFU, ARL8B / Fold change vs veh, ARL8B / RFU, ZBTB11 / Fold change vs veh, ZBTB11 / RFU, TAMM41 / Fold change vs veh, TAMM41 / RFU, KIAA1704 /// LOC100996395 / Fold change vs veh, KIAA1704 /// LOC100996395 / RFU, ING1 / Fold change vs veh, ING1 / RFU, TRMT61B / Fold change vs veh, TRMT61B / RFU, FUBP3 / Fold change vs veh, FUBP3 / RFU, TP53 / Fold change vs veh, TP53 / RFU, TNKS2 / Fold change vs veh, TNKS2 / RFU, ZFP14 / Fold change vs veh, ZFP14 / RFU, ACTR2 / Fold change vs veh, ACTR2 / RFU, PPP3R1 / Fold change vs veh, PPP3R1 / RFU, PIK3R1 / Fold change vs veh, PIK3R1 / RFU, HNRNPA1 / Fold change vs veh, HNRNPA1 / RFU, RNF170 / Fold change vs veh, RNF170 / RFU, ZNF28 / Fold change vs veh, ZNF28 / RFU, RNGTT / Fold change vs veh, RNGTT / RFU, OGT / Fold change vs veh, OGT / RFU, BRD1 / Fold change vs veh, BRD1 / RFU, MARS / Fold change vs veh, MARS / RFU, ZNF655 / Fold change vs veh, ZNF655 / RFU, FAHD1 / Fold change vs veh, FAHD1 / RFU, BDP1 / Fold change vs veh, BDP1 / RFU, LRRCC1 / Fold change vs veh, LRRCC1 / RFU, ARID1A / Fold change vs veh, ARID1A / RFU, ZNF146 / Fold change vs veh, ZNF146 / RFU, ZNF330 / Fold change vs veh, ZNF330 / RFU, GPN3 / Fold change vs veh, GPN3 / RFU, C9orf123 / Fold change vs veh, C9orf123 / RFU, N4BP2L2 / Fold change vs veh, N4BP2L2 / RFU, ARFIP1 / Fold change vs veh, ARFIP1 / RFU, FAM179B / Fold change vs veh, FAM179B / RFU, BCL10 / Fold change vs veh, BCL10 / RFU, UHRF1BP1L / Fold change vs veh, UHRF1BP1L / RFU, BET1 / Fold change vs veh, BET1 / RFU, CNOT2 / Fold change vs veh, CNOT2 / RFU, ZNF268 / Fold change vs veh, ZNF268 / Fold change vs veh, ZNF507 / RFU, DGCR2 / Fold change vs veh, DGCR2 / RFU, WDSUB1 / Fold change vs veh, WDSUB1 / Fold change vs veh, HSP90B1 /// MIR3652 / RFU, ADSS / Fold change vs veh, ADSS / RFU, GK / Fold change vs veh, GK / RFU, ZNF148 / Fold change vs veh, ZNF148 / RFU, TAF9 / Fold change vs veh, TAF9 / RFU, SLC1A5 / Fold change vs veh, SLC1A5 / RFU, SLMO2 / Fold change vs veh, SLMO2 / RFU, ABCC4 / Fold change vs veh, ABCC4 / RFU, LOC101060439 /// RAP1B / Fold change vs veh, LOC101060439 /// RAP1B / RFU, RFX7 / Fold change vs veh, RFX7 / RFU, GTPBP10 / Fold change vs veh, GTPBP10 / RFU, CNEP1R1 / Fold change vs veh, CNEP1R1 / RFU, BIVM-ERCC5 /// ERCC5 / Fold change vs veh, BIVM-ERCC5 /// ERCC5 / RFU, ILF3 / Fold change vs veh, ILF3 / RFU 11762660_at / Fold change /veh 11762660_at / RFU VCAN (11757783_s_at) / Fold change /veh VCAN (11757783_s_at) / RFU DDX43 (11728927_at) / Fold change /veh DDX43 (11728927_at) / RFU KRT8 (11758188_x_at) / Fold change /veh KRT8 (11758188_x_at) / RFU NKD1 (11759106_at) / Fold change /veh NKD1 (11759106_at) / RFU SRD5A1 (11742802_a_at) / Fold change /veh SRD5A1 (11742802_a_at) / RFU TPSAB1 /// TPSB2 (11721975_s_at) / Fold change /veh TPSAB1 /// TPSB2 (11721975_s_at) / RFU GSTM3 (11746129_a_at) / Fold change /veh GSTM3 (11746129_a_at) / RFU IL23R (11737362_x_at) / Fold change /veh IL23R (11737362_x_at) / RFU TMEM51 (11727254_a_at) / Fold change /veh TMEM51 (11727254_a_at) / RFU PIWIL2 (11732686_x_at) / Fold change /veh PIWIL2 (11732686_x_at) / RFU ORM1 (11744905_x_at) / Fold change /veh ORM1 (11744905_x_at) / RFU CCDC152 (11743942_at) / Fold change /veh CCDC152 (11743942_at) / RFU ECM1 (11717891_a_at) / Fold change /veh ECM1 (11717891_a_at) / RFU IL23R (11748794_a_at) / Fold change /veh IL23R (11748794_a_at) / RFU TNFAIP8L3 (11732012_x_at) / Fold change /veh TNFAIP8L3 (11732012_x_at) / RFU MBOAT4 (11741988_at) / Fold change /veh MBOAT4 (11741988_at) / RFU 11764193_at / Fold change /veh 11764193_at / RFU TMEM53 (11763286_at) / Fold change /veh TMEM53 (11763286_at) / RFU MAGEB2 (11727129_at) / Fold change /veh MAGEB2 (11727129_at) / RFU TMEM200A (11744735_a_at) / Fold change /veh TMEM200A (11744735_a_at) / RFU CCDC152 (11751479_a_at) / Fold change /veh CCDC152 (11751479_a_at) / RFU FAM211A (11726209_a_at) / Fold change /veh FAM211A (11726209_a_at) / RFU RGS16 (11746705_a_at) / Fold change /veh RGS16 (11746705_a_at) / RFU VCAN (11755009_s_at) / Fold change /veh VCAN (11755009_s_at) / RFU RHOB (11743442_s_at) / Fold change /veh RHOB (11743442_s_at) / RFU RGS16 (11720943_a_at) / Fold change /veh RGS16 (11720943_a_at) / RFU RGS16 (11720944_at) / Fold change /veh RGS16 (11720944_at) / RFU, VPS4B / Fold change vs veh, VPS4B / RFU, CREB1 / Fold change vs veh, CREB1 / RFU, DNAJC13 / Fold change vs veh, DNAJC13 / RFU, GNAQ / Fold change vs veh, GNAQ / RFU, CDK5R1 / Fold change vs veh, CDK5R1 / RFU, ZRANB3 / Fold change vs veh, ZRANB3 / RFU, CUL4A / Fold change vs veh, CUL4A / RFU, CCNY / Fold change vs veh, CCNY / RFU, UFL1 / Fold change vs veh, UFL1 / RFU, COG3 / Fold change vs veh, COG3 / RFU, DIAPH2 / Fold change vs veh, DIAPH2 / RFU, SKA2 / Fold change vs veh, SKA2 / RFU, AFF3 / Fold change vs veh, AFF3 / RFU, LMF1 / Fold change vs veh, LMF1 / RFU, IPO11 / Fold change vs veh, IPO11 / RFU, DFFB / Fold change vs veh, DFFB / RFU, FOXP1 / Fold change vs veh, FOXP1 / RFU, CARD8 / Fold change vs veh, CARD8 / RFU, STRN3 / Fold change vs veh, STRN3 / RFU, ADK / Fold change vs veh, ADK / RFU, RASSF2 / Fold change vs veh, RASSF2 / RFU, WIPF1 / Fold change vs veh, WIPF1 / RFU, LARP1B / Fold change vs veh, LARP1B / RFU, RASA1 / Fold change vs veh, RASA1 / RFU, RB1 / Fold change vs veh, RB1 / RFU, PPFIA1 / Fold change vs veh, PPFIA1 / RFU, MAT2A / Fold change vs veh, MAT2A / RFU, CCT5 / Fold change vs veh, CCT5 / RFU, WDR92 / Fold change vs veh, WDR92 / RFU, CUX1 / Fold change vs veh, CUX1 / RFU, TTC7A / Fold change vs veh, TTC7A / RFU, TMEM135 / Fold change vs veh, TMEM135 / RFU, DEPTOR / Fold change vs veh, DEPTOR / RFU, CPM / Fold change vs veh, CPM / RFU, DNAJB6 / Fold change vs veh, DNAJB6 / RFU, CACNA2D3 / Fold change vs veh, CACNA2D3 / RFU, DTX4 / Fold change vs veh, DTX4 / RFU, TFCP2 / Fold change vs veh, TFCP2 / RFU, GMCL1 /// GMCL1P1 / Fold change vs veh, GMCL1 /// GMCL1P1 / RFU, AEBP2 / Fold change vs veh, AEBP2 / RFU, SNHG1 /// SNORD22 /// SNORD25 /// SNORD26 /// SNORD27 /// SNORD28 /// SNORD29 /// SNORD31 / Fold change vs veh, SNHG1 /// SNORD22 /// SNORD25 /// SNORD26 /// SNORD27 /// SNORD28 /// SNORD29 /// SNORD31 / Fold change (Aza/veh), C12orf56 (ProbeSet 11735607_a_at) / Fold change (ACY-1035/veh), C12orf56 (ProbeSet 11735607_a_at) / Fold change (Aza/veh), FGFR1OP (ProbeSet 11751329_s_at) / Fold change (ACY-1035/veh), FGFR1OP (ProbeSet 11751329_s_at) / Fold change (Aza/veh), VPS36 (ProbeSet 11739960_a_at) / Fold change (ACY-1035/veh), VPS36 (ProbeSet 11739960_a_at) / RFU SYPL1 (11715823_x_at) / Fold change /veh SYPL1 (11715823_x_at) / RFU IGFBP7 (11715501_s_at) / Fold change /veh IGFBP7 (11715501_s_at) / RFU REEP3 (11722064_at) / Fold change /veh REEP3 (11722064_at) / RFU IGLL1 (11728026_x_at) / Fold change /veh IGLL1 (11728026_x_at): dose or concentration left out as unconfirmed. Particulars: ProbeSet 11725902_s_at; LIST D.

On to `Nc1ncn([C@@H]2O[C@H](CO)[C@@H](O)[C@H]2O)c(=O)n1` [azacitidine], for which the “Fold change vs veh, TMEM135” value stood at 0.57.
